The record followed here is patent publication US20020132853A1, “Capsaicin receptor ligands” (priority 2000, published 2002).

For the experiment, the target named is T1, human capsaicin receptor (Homo sapiens, UniProt Q8NER1).
T1 construct: expression consrtuct encoding the full length human capsaicin receptor; expressed in transfected cells
The experiment can be described thus: Antagonist assay for Capsaicin receptor mediated calcium mobilization. To be noted: Table III, read-out: EC50 (the source's name). Format: cell-based. As for the experimental part:
Calcium Mobilization Assay
Cells transfected with expression plasmids (as described in Example 10) and thereby expressing the human capsaicin receptor are seeded and grown to 70-90% confluency in FALCON black-walled, clear-bottomed 96-well plates (#3904, BECTON-DICKINSON, Franklin Lakes, N.J.) . The culture media are emptied from the 96 well plates and FLUO-3 AM calcium sensitive dye (Molecular Probes, Eugene, OR) is added to each well (dye solution: 1 mg FLUO-3 AM, 440 uL DMSO and 440 ul 20% pluronic acid in DMSO, diluted 1:4, 50 ul diluted solution per well). Plates are covered with aluminum foil and incubated at 37° C for 1-2 hours in an environment containing 5% CO2. After the incubation the dye is emptied from the plates, and the cells are washed once with Krebs-Ringer HEPES (KRH) buffer (25 mM HEPES, 5 mM KCl, 0.96 mM NaH2PO4, 1 MM MgSO4, 2 mM CaCl2, 5 mM glucose, 1 mM probenecid, pH 7.4), and resuspended in KRH buffer.
Agonist (e.g., olvanil, capsaicin, or RTX)-induced calcium mobilization is monitored using either FLUOROSKAN ASCENT (Labsystems, Franklin, Mass.) or FLIPR (fluorometric imaging plate reader system, Molecular Devices, Sunnyvale, Calif.) instruments. Similarly, varying concentrations of the antagonists ruthenium red or capsazepine are added to cells concurrently with agonist (e.g., 25-50 nM capsaicin). For agonist-induced calcium responses, data obtained between 30 and 60 seconds after agonist application are used to generate the EC50 values. […] software (Synergy Software, Reading, Pa.) was utilized to fit the data to the equation: […]
to determine the EC50 for the response. In this equation, y is the maximum fluorescence signal, x is the concentration of the agonist or antagonist, a is the Emax, b corresponds to the EC50 or IC50 value, and finally, c is the Hill coefficient.
Assay for Determination of Capsaicin Receptor Antagonist Effects
In order to measure the ability of a test compound to antagonize (inhibit) the response of cells expressing capsaicin receptors to capsaicin or other vanilloid agonist, the EC50 of capsaicin is first determined.
An additional 20 ul of KRH buffer and 1 ul DMSO is added to each well of cells, prepared as described above. 100 ul capsaicin in KRH buffer is automatically transferred by the FLIPR instrument to each well.
Test compounds are dissolved in DMSO, diluted in 20 ul KRH buffer so that the final concentration of test compounds in the assay well is between 1 uM and 5 uM, and added to cells prepared as described above. The 96 well plates containing prepared cells and test compounds are incubated in the dark, at room temperature for 0.5-6 hours. It is important that the incubation not continue beyond 6 hours. Just prior to determining the fluorescence response, 100 ul capsaicin in KRH buffer at twice the EC50 concentration determined from the concentration response curve is automatically added by the FLIPR instrument to each well of the 96 well plate for a final sample volume of 200 ul and a final capsaicin concentration equal to the EC50. The final concentration of test compounds in the assay wells is between 1 uM and 5 uM. […] Antagonists of the capsaicin receptor decrease this response by about 20%, preferably by about 50%, and most preferably by at least 80% as compared to matched control. The concentration of antagonist required to provide a 50% decrease is the EC50 for the antagonist (also referred to as the IC50).
For orientation: Calcium assays in cells follow changes in intracellular calcium, usually with a dye or a luminescent sensor.

T1 sequence (Q8NER1 whole entry): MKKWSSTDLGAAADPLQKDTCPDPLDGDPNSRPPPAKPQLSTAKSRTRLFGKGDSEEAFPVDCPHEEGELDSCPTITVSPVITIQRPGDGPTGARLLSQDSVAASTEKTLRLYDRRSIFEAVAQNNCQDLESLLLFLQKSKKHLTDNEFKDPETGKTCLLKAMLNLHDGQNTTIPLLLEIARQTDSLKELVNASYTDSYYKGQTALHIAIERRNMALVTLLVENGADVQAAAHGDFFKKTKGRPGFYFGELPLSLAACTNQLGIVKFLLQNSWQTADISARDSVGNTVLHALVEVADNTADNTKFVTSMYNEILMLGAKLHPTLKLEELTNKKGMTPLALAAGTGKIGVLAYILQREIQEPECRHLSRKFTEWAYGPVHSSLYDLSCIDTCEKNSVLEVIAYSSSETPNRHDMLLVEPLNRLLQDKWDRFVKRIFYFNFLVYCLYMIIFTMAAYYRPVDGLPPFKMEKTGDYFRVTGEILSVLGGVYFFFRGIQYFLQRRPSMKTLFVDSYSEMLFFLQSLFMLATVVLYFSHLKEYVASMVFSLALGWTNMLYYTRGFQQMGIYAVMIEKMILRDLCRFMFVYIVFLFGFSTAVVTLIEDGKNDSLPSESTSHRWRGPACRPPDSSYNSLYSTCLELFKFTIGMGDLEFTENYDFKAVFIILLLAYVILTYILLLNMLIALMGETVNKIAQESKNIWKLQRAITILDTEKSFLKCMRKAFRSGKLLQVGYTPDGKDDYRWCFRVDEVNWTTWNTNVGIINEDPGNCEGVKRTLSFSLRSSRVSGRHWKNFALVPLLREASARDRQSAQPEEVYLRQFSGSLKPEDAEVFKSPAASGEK

For the compound `C[C@@H]1CN(c2ncccc2Cl)CCN1C(=O)Nc1ccc(C2CCCCC2)cc1` [Compound 18, (2R)-4-(3-chloropyridin-2-yl)-N-(4-cyclohexylphenyl)-2-methylpiperazine-1-carboxamide], the IC50 was less than 1000 nM.

Regarding `C[C@@H]1CN(c2ncccc2Cl)CCN1C(=O)Nc1ccc(C(F)(F)F)cc1` [Compound 20, (2R)-4-(3-chloropyridin-2-yl)-2-methyl-N-[4-(trifluoromethyl)phenyl]piperazine-1-carboxamide], the IC50 is less than 1000 nM.

As to `C[C@@H]1CN(c2ncccc2Cl)CCN1C(=O)Nc1ccc(C(C)(C)C)cc1` [Compound 21, (2R)-N-(4-tert-butylphenyl)-4-(3-chlorpyridin-2-yl)-2-methylpiperazine-1-carboxamide], the IC50 was less than 1000 nM.

With `CC(C)c1ccc(NC(=O)N2CCN(c3ncccc3Cl)C[C@H]2C)cc1` [Compound 22, (2R)-4-(3-chloropyridin-2-yl)-N-(4-isopropylphenyl)-2-methylpiperazine-1-carboxamide], the IC50 is less than 1000 nM.

In the case of `C[C@H]1CN(c2ncccc2Cl)CCN1C(=O)Nc1ccc(C(F)(F)F)cc1` [Compound 23, (2S)-4-(3-chloropyridin-2-yl)-N-(4-trifluoromethylphenyl)-2-methylpiperazine-1-carboxamide], the IC50 was less than 1000 nM.

Consider `C[C@H]1CN(c2ncccc2Cl)CCN1C(=O)Nc1ccc(C(C)(C)C)cc1` [Compound 24, (2S)-N-(4-tert-butylphenyl)-4-(3-chloropyridin-2-yl)-2-methylpiperazine-1-carboxamide], for which the IC50 is less than 1000 nM.

With `C[C@@H]1CN(c2ncccc2Cl)CCN1C(=O)Nc1ccc(N2CCCCC2)cc1` [Compound 26, (2R)-4-(3-chloropyridin-2-yl)-2-methyl-N-(4-piperidin-1-ylphenyl)piperazine-1-carboxamide], the IC50 was less than 1000 nM.

In the case of `C[C@@H]1CN(c2ncccc2Cl)CCN1C(=O)Nc1ccc(C(F)(F)F)cc1F` [Compound 27, (2R)-4-(3-chloropyridin-2-yl)-N-[2-fluoro-4-(trifluoromethyl)phenyl]-2-methylpiperazine-1-carboxamide], the IC50 was less than 1000 nM.

With `C[C@@H]1CN(c2ncccc2C(F)(F)F)CCN1C(=O)Nc1ccc(C(F)(F)F)cc1` [Compound 28, (2R)-2-methyl-N-[4-(trifluoromethyl)phenyl]-4-[3-(trifluoromethyl)pyridin-2-yl]piperazine-1-carboxamide], the IC50 was less than 1000 nM.

Consider `C[C@@H]1CN(c2ncccc2C(F)(F)F)CCN1C(=O)Nc1ccc(C(C)(C)C)cc1` [Compound 29, (2R)-N-(4-tert-butylphenyl)-2-methyl-4-[3-(trifluoromethyl)pyridin-2-yl]piperazine-1-carboxamide], for which the IC50 was less than 1000 nM.

Take `CC(C)c1ccc(NC(=O)N2CCN(c3ncccc3C(F)(F)F)C[C@H]2C)cc1` [Compound 30, (2R)-N-(4-isopropylphenyl)-2-methyl-4-[3-(trifluoromethyl)pyridin-2-yl]piperazine-1-carboxamide]: the IC50 was less than 1000 nM.

For the compound `CC1CN(c2ncccc2Cl)CC(C)N1C(=O)Nc1ccc(C(F)(F)F)cc1` (stereo not drawn) [Compound 31, 4-(3-chloropyridin-2-yl)-2,6-dimethyl-N-[4-(trifluoromethyl)phenyl]piperazine-1-carboxamide], the IC50 was less than 1000 nM.

Take `CC1CN(c2ncccc2Cl)CC(C)N1C(=O)Nc1ccc(C(C)(C)C)cc1` (stereo not drawn) [Compound 32, N-(4-tert-butylphenyl)-4-(3-chloropyridin-2-yl)-2,6-dimethylpiperazine-1-carboxamide]: the IC50 was less than 1000 nM.

For `CC(C)c1ccc(NC(=O)N2C(C)CN(c3ncccc3Cl)CC2C)cc1` (stereo not drawn) [Compound 33, 4-(3-chloropyridin-2-yl)-N-(4-isopropylphenyl)-2,6-dimethylpiperazine-1-carboxamide], the IC50 is less than 1000 nM.

For the compound `C[C@@H]1CN(c2ncccc2C(F)(F)F)CCN1C(=O)Nc1ccc(C2CCCCC2)cc1` [Compound 34, (2R)-N-(4-cyclohexylphenyl)-2-methyl-4-[3-(trifluoromethyl)pyridin-2-yl]piperazine-1-carboxamide], the IC50 was less than 1000 nM.

Turning to `CC1CN(c2ncccc2Cl)CC(C)N1C(=O)Nc1ccc(C2CCCCC2)cc1` (stereo not drawn) [Compound 35, 4-(3-chloropyridin-2-yl)-N-(4-cyclohexylphenyl) 2,6-dimethylpiperazine-1-carboxamide], the IC50 was less than 1000 nM.

Regarding `C[C@@H]1CN(c2ncccc2Cl)CCN1C(=O)Nc1ccc(C2CCCC2)cc1` [Compound 36, (2R)-4-(3-chloropyridin-2-yl)-N-(4-cyclopentylphenyl)-2-methylpiperazine-1-carboxamide], the IC50 is less than 1000 nM.

Take `C[C@@H]1CN(c2ncccc2C(F)(F)F)CCN1C(=O)Nc1ccc(C2CCCC2)cc1` [Compound 37, (2R)-N-(4-cyclopentylphenyl)-2-methyl-4-[3-(trifluoromethyl)pyridin-2-yl]piperazine-1-carboxamide]: the IC50 was less than 1000 nM.

With `C[C@@H]1CN(c2nccc3ccccc23)CCN1C(=O)Nc1ccc(C(F)(F)F)cc1` [Compound 38, (2R)-4-isoquinolin-1-yl-2-methyl-N-[4-(trifluoromethyl)phenyl]piperazine-1-carboxamide], the IC50 is less than 1000 nM.

Turning to `C[C@@H]1CN(c2nccc3ccccc23)CCN1C(=O)Nc1ccc(C(C)(C)C)cc1` [Compound 39, (2R)-N-(4-tert-butylphenyl)-4-isoquinolin-1-yl-2-methylpiperazine-1-carboxamide], the IC50 was less than 1000 nM.

For `CC(C)c1ccc(NC(=O)N2CCN(c3nccc4ccccc34)C[C@H]2C)cc1` [Compound 40, (2R)-N-(4-isopropylphenyl)-4-isoquinolin-1-yl-2-methylpiperazine-1-carboxamide], the IC50 is less than 1000 nM.

On to `C[C@@H]1CN(c2nccc3ccccc23)CCN1C(=O)Nc1ccc(C2CCCC2)cc1` [Compound 41, (2R)-N-(4-cyclopentylphenyl)-4-isoquinolin-1-yl-2-methylpiperazine-1-carboxamide], for which the IC50 was less than 1000 nM.

As for `C[C@@H]1CN(c2nccc3ccccc23)CCN1C(=O)Nc1ccc(C2CCCCC2)cc1` [Compound 42, (2R)-N-(4-cyclohexylphenyl)-4-isoquinolin-1-yl-2-methylpiperazine-1-carboxamide], the IC50 was less than 1000 nM.

As for `C[C@@H]1CN(c2ncccc2N(C)C)CCN1C(=O)Nc1ccc(C(C)(C)C)cc1` [Compound 43, (2R)-N-(4-tert-butylphenyl)-4-[3-(dimethylamino)pyridin-2-yl]-2-methylpiperazine-1-carboxamide], the IC50 was less than 1000 nM.

For the compound `C[C@@H]1CN(c2ncccc2N(C)C)CCN1C(=O)Nc1ccc(C(F)(F)F)cc1` [Compound 44], the IC50 was less than 1000 nM.

As to `COc1cccnc1N1CCN(C(=O)Nc2ccc(C(C)(C)C)cc2)[C@H](C)C1` [Compound 45, (2R)-N-(4-tert-butylphenyl)-4-(3-methoxypyridin-2-yl)-2-methylpiperazine-1-carboxamide], the IC50 is less than 1000 nM.

Consider `COc1cccnc1N1CCN(C(=O)Nc2ccc(C3CCCCC3)cc2)[C@H](C)C1` [Compound 47, (2R)-N-(4-cyclohexylphenyl)-4-(3-methoxypyridin-2-yl)-2-methylpiperazine-1-carboxamide], for which the IC50 is less than 1000 nM.
